How the values were obtained:
Assay in all cases: KINOMEscan
Format in all cases: binding
Details in all cases: read-out: percent control
EPHA6 = EPHA6 (Homo sapiens (Human), UniProt Q9UF33)
Excerpt: (§1) Example 2. In Vitro Kinase Selectivity Profiling of the Compounds of the Present Disclosure

CDK11 = CDK11 (Homo sapiens (Human), UniProt Q9BWU1)
Excerpt: as §1

YANK2 = YANK2 (Homo sapiens (Human), UniProt Q9NY57)
Excerpt: as §1

AURKC = AURKC (Homo sapiens (Human), UniProt Q9UQB9)
Excerpt: as §1

NEK5 = NEK5 (Homo sapiens (Human), UniProt Q6P3R8)
Excerpt: as §1

EPHB6 = EPHB6 (Homo sapiens (Human), UniProt O15197)
Excerpt: as §1

YANK1 = YANK1 (Homo sapiens (Human), UniProt Q8WU08)
Excerpt: as §1

NIK = NIK (Homo sapiens (Human), UniProt Q99558)
Excerpt: as §1

IKK-alpha = IKK-alpha (Homo sapiens (Human), UniProt O15111)
Excerpt: as §1

[1] = biological target: RSK3(Kin.Dom.2- C-terminal) (Homo sapiens (Human), UniProt Q15349)
RSK3(Kin.Dom.2- C-terminal), sequence (Q15349 415-672 limits assumed): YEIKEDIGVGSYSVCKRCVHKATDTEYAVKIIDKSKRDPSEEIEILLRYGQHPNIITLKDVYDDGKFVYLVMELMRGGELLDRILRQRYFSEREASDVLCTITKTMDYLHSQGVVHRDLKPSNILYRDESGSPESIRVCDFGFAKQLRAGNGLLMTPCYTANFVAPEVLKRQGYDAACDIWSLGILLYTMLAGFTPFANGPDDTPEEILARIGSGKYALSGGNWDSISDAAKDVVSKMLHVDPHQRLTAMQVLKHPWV
Excerpt: as §1

PIK3CA(E545K) = PIK3CA(E545K) (Homo sapiens (Human), UniProt P42336, E545K)
Excerpt: as §1

NEK2 = NEK2 (Homo sapiens (Human), UniProt P51955)
Excerpt: as §1

PCTK2 = PCTK2 (Homo sapiens (Human), UniProt Q00537)
Excerpt: as §1

MST1R = MST1R (Homo sapiens (Human), UniProt Q04912)
Excerpt: as §1

GRK1 = GRK1 (Homo sapiens (Human), UniProt Q15835)
Excerpt: as §1

TRPM6 = TRPM6 (Homo sapiens (Human), UniProt Q9BX84)
Excerpt: as §1

ACVR1 = ACVR1 (Homo sapiens (Human), UniProt Q04771)
Excerpt: as §1

PRKD1 = PRKD1 (Homo sapiens (Human), UniProt Q15139)
Excerpt: as §1

DCAMKL1 = DCAMKL1 (Homo sapiens (Human), UniProt O15075)
Excerpt: as §1

CDC2L1 = CDC2L1 (Homo sapiens (Human), UniProt P21127)
Excerpt: as §1

TXK = TXK (Homo sapiens (Human), UniProt P42681)
Excerpt: as §1

PRKCH = PRKCH (Homo sapiens (Human), UniProt P24723)
PRKCH, sequence (P24723 whole entry): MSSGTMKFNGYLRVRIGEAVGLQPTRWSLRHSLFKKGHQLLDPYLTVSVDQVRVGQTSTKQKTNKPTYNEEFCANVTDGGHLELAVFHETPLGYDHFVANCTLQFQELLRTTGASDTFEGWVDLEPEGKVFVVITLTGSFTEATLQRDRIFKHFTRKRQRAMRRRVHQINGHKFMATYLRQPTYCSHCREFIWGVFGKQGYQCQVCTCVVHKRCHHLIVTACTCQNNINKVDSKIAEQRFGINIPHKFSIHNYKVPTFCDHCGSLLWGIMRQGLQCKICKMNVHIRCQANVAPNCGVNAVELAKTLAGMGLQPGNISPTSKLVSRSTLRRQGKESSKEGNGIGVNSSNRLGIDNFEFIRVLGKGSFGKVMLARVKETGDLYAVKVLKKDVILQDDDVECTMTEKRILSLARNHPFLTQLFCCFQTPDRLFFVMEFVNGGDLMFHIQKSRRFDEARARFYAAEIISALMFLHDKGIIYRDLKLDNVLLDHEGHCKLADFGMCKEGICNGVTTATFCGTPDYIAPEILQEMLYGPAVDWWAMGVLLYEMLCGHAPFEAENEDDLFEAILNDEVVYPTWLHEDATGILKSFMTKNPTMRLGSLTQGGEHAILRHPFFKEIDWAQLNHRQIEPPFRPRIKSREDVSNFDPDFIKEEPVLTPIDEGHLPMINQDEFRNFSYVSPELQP
Excerpt: as §1

TNIK = TNIK (Homo sapiens (Human), UniProt Q9UKE5)
Excerpt: as §1

[2] = biological target: ABL1(Y253F)-phosphorylated (Homo sapiens (Human), UniProt P00519, Y253F)
Excerpt: as §1

[3] = biological target: RPS6KA5(Kin.Dom.2-C-terminal) (Homo sapiens (Human), UniProt O75582)
RPS6KA5(Kin.Dom.2-C-terminal), sequence (O75582 426-687 limits assumed): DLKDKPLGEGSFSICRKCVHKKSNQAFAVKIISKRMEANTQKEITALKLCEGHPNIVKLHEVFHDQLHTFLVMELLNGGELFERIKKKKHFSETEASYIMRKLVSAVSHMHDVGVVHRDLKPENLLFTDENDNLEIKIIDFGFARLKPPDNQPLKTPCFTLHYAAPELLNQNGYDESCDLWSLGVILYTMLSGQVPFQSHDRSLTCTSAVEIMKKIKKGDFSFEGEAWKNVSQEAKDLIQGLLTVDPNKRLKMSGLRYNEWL
Excerpt: as §1

NDR1 = NDR1 (Homo sapiens (Human), UniProt Q15208)
NDR1, sequence (Q15208 whole entry): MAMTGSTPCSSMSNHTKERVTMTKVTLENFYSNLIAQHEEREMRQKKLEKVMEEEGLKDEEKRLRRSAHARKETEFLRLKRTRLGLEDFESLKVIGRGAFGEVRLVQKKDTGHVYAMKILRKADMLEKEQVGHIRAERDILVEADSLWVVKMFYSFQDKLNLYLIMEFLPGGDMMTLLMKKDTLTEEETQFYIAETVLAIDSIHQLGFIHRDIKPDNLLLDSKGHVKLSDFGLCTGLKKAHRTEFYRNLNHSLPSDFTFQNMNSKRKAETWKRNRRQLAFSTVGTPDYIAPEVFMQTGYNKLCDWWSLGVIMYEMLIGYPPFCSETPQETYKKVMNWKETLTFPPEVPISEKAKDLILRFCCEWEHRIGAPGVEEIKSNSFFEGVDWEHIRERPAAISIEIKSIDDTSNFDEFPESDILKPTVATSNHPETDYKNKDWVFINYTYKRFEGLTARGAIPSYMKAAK
Excerpt: as §1

p38-beta = p38-beta (Homo sapiens (Human), UniProt Q15759)
Excerpt: as §1

JNK2 = JNK2 (Homo sapiens (Human), UniProt P45984)
JNK2, sequence (P45984 whole entry): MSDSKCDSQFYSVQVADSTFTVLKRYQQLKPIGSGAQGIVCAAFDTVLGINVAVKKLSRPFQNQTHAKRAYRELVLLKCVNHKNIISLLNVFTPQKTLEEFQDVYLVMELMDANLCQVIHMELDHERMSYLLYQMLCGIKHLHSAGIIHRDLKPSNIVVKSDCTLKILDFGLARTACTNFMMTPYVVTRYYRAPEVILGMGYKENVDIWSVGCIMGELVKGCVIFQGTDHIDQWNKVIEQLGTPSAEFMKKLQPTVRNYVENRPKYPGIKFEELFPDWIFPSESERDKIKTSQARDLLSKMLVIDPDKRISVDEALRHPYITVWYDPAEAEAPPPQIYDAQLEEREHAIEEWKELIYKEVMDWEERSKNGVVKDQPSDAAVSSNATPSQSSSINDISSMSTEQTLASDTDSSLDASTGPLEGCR
Excerpt: as §1

PIK3CA(Q546K) = PIK3CA(Q546K) (Homo sapiens (Human), UniProt P42336, Q546K)
Excerpt: as §1

[4] = biological target: ABL1(T315I)-nonphosphorylated (Homo sapiens (Human), UniProt P00519, T315I)
Excerpt: as §1

PIKFYVE = PIKFYVE (Homo sapiens (Human), UniProt Q9Y2I7)
Excerpt: as §1

YES = YES (Homo sapiens (Human), UniProt P07947)
Excerpt: as §1

JNK1 = JNK1 (Homo sapiens (Human), UniProt P45983)
Excerpt: as §1

PAK3 = PAK3 (Homo sapiens (Human), UniProt O75914)
Excerpt: as §1

PKNB(M.tuberculosis) = PKNB(M.tuberculosis) (Mycobacterium tuberculosis (strain ATCC 25618 / H37Rv), UniProt P9WI81)
Excerpt: as §1

SRPK3 = SRPK3 (Homo sapiens (Human), UniProt Q9UPE1)
SRPK3, sequence (Q9UPE1 whole entry): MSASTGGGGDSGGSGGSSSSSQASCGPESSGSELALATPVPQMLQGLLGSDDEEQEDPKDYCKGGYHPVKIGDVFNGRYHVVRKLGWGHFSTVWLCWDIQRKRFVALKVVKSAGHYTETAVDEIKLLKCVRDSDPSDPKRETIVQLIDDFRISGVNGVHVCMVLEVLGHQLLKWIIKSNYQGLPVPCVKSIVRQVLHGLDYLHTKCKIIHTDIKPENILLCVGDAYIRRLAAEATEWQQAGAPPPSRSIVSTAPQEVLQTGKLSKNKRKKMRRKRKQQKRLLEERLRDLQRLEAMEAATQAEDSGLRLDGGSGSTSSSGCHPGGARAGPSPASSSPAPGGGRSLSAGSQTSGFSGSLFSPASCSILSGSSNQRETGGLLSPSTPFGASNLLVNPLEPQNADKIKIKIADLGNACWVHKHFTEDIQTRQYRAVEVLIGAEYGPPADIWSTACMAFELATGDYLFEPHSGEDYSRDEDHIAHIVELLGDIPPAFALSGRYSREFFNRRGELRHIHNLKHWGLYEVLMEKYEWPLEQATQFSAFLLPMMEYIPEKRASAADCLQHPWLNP
Excerpt: as §1

GRK7 = GRK7 (Homo sapiens (Human), UniProt Q8WTQ7)
Excerpt: as §1

SYK = SYK (Homo sapiens (Human), UniProt P43405)
Excerpt: as §1

SGK3 = SGK3 (Homo sapiens (Human), UniProt Q96BR1)
Excerpt: as §1

PRKR = PRKR (Homo sapiens (Human), UniProt P19525)
PRKR, sequence (P19525 whole entry): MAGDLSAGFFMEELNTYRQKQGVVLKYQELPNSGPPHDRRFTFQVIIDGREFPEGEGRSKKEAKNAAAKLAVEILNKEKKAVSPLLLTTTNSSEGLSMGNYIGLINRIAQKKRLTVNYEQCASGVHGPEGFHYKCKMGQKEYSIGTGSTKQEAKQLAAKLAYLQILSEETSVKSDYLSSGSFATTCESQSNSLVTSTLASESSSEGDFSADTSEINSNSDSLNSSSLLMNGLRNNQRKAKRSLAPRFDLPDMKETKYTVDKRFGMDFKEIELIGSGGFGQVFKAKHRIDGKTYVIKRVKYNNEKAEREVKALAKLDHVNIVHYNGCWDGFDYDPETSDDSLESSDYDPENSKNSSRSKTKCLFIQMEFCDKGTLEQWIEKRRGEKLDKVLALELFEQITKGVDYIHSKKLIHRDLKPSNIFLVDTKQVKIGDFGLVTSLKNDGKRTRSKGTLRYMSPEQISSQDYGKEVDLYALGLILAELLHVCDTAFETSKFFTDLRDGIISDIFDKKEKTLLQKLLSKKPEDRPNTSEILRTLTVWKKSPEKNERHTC
Excerpt: as §1

CDK11, sequence (Q9BWU1 whole entry): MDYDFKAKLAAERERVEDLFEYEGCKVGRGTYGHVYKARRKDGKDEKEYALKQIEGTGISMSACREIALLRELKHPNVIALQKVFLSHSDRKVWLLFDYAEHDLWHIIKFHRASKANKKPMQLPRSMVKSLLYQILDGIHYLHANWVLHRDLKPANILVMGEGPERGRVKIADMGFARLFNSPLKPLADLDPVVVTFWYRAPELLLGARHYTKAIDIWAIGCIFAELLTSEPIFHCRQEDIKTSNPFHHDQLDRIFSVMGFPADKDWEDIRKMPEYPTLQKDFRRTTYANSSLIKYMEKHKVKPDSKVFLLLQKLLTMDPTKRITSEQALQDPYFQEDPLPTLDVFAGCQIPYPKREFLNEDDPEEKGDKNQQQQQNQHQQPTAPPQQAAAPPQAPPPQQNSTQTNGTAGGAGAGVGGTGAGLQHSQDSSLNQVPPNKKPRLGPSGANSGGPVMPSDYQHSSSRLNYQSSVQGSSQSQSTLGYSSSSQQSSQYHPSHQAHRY
EPHA6, sequence (Q9UF33 23-1036): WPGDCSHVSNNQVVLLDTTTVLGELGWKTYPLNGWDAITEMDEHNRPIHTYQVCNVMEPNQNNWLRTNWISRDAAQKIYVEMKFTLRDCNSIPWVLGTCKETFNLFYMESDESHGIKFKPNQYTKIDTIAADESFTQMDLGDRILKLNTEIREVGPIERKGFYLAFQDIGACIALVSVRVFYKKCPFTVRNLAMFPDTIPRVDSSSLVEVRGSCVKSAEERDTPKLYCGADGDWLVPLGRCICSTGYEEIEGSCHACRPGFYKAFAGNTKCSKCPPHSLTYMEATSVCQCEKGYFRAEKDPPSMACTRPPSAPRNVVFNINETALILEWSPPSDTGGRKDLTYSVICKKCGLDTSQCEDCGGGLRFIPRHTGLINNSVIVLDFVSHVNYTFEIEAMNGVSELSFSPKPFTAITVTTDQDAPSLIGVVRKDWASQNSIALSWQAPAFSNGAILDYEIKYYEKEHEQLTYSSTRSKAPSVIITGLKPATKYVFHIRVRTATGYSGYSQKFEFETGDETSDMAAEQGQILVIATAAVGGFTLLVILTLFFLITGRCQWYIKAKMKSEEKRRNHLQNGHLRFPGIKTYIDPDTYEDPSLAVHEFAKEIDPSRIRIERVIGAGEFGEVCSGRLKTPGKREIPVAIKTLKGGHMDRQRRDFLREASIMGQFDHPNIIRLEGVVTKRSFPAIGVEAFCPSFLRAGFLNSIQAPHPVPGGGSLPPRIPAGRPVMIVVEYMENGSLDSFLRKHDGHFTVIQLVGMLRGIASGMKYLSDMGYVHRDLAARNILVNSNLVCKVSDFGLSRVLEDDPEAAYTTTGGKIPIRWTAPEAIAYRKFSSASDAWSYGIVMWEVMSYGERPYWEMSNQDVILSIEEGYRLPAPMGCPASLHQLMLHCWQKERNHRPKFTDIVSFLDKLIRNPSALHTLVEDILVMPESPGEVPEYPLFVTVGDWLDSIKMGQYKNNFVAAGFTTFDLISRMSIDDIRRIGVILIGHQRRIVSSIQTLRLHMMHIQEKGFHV

SMILES	remaining binding at 1 µM (EPHA6) [%]	remaining binding at 1 µM (CDK11) [%]	remaining binding at 1 µM (YANK2) [%]	remaining binding at 1 µM (AURKC) [%]	remaining binding at 1 µM (NEK5) [%]	remaining binding at 1 µM (EPHB6) [%]	remaining binding at 1 µM (YANK1) [%]	remaining binding at 1 µM (NIK) [%]	remaining binding at 1 µM (IKK-alpha) [%]	remaining binding at 1 µM [1] [%]	remaining binding at 1 µM (PIK3CA(E545K)) [%]	remaining binding at 1 µM (NEK2) [%]	remaining binding at 1 µM (PCTK2) [%]	remaining binding at 1 µM (MST1R) [%]	remaining binding at 1 µM (GRK1) [%]	remaining binding at 1 µM (TRPM6) [%]	remaining binding at 1 µM (ACVR1) [%]	remaining binding at 1 µM (PRKD1) [%]	remaining binding at 1 µM (DCAMKL1) [%]	remaining binding at 1 µM (CDC2L1) [%]	other results
CCN1CCN(Cc2ccc(Nc3nc4ccc(Oc5ccnc(NC(C)=O)c5)cc4n3C)cc2C(F)(F)F)CC1 [Compound I-2]	100	1.5	100	19	38	72	100	100	100	82	80	97	91	80	82	79	99	99	91	0.1	remaining binding at 1 µM (TXK): 100%; remaining binding at 1 µM (PRKCH): 100%; remaining binding at 1 µM (TNIK): 53%; remaining binding at 1 µM [2]: 44%; remaining binding at 1 µM [3]: 90%; remaining binding at 1 µM (NDR1): 90%; remaining binding at 1 µM (p38-beta): 100%; remaining binding at 1 µM (JNK2): 85%; remaining binding at 1 µM (PIK3CA(Q546K)): 100%; remaining binding at 1 µM [4]: 46%; remaining binding at 1 µM (PIKFYVE): 80%; remaining binding at 1 µM (YES): 82%; remaining binding at 1 µM (JNK1): 79%; remaining binding at 1 µM (PAK3): 54%; remaining binding at 1 µM (PKNB(M.tuberculosis)): 80%; remaining binding at 1 µM (SRPK3): 100%; remaining binding at 1 µM (GRK7): 88%; remaining binding at 1 µM (SYK): 85%; remaining binding at 1 µM (SGK3): 93%; remaining binding at 1 µM (PRKR): 39%
CCN1CCN(Cc2ccc(Nc3nc4ccc(Oc5ccnc(NC(C)=O)c5)c(C)c4n3C)cc2C(F)(F)F)CC1 [Compound I-6, N-(4-(2-(4-((4-ethylpiperazin-1-yl)methyl)-3-(trifluoromethyl)phenylamino)-1,7-dimethyl-1H-benzo[d]imidazol-6-yloxy)pyridin-2-yl)acetamide]	96	1.6	91	70	6.7	95	93	100	75	95	97	91	35	83	85	84	100	95	69	0	remaining binding at 1 µM (TXK): 84%; remaining binding at 1 µM (PRKCH): 87%; remaining binding at 1 µM (TNIK): 75%; remaining binding at 1 µM [2]: 5.5%; remaining binding at 1 µM [3]: 100%; remaining binding at 1 µM (NDR1): 100%; remaining binding at 1 µM (p38-beta): 94%; remaining binding at 1 µM (JNK2): 66%; remaining binding at 1 µM (PIK3CA(Q546K)): 75%; remaining binding at 1 µM [4]: 32%; remaining binding at 1 µM (PIKFYVE): 93%; remaining binding at 1 µM (YES): 84%; remaining binding at 1 µM (JNK1): 90%; remaining binding at 1 µM (PAK3): 77%; remaining binding at 1 µM (PKNB(M.tuberculosis)): 82%; remaining binding at 1 µM (SRPK3): 87%; remaining binding at 1 µM (GRK7): 95%; remaining binding at 1 µM (SYK): 92%; remaining binding at 1 µM (SGK3): 100%; remaining binding at 1 µM (PRKR): 64%
